The target of the test is Human Factor D (Homo sapiens (Human), UniProt P00746). Description: Human Factor D Assay. It is filed as biochemical. The procedure, abridged: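 Thioesterase activity monitored with Z-L-Lys-SBzl plus Ellman's reagent (DTNB), each 100 μM final, after 5 min room-temperature compound preincubation of 80 nM human serum Factor D in pH 7.5 Tris (50 mM)/1M NaCl.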
[1] abbreviates: Table 3, Human Factor D 80 nM, substrate Z-L-Lys-SBzl, read-out: IC50 (Stars).
[2] abbreviates: Human Factor D assay of Example 8, Table 2, read-out: IC50.
Where [3] appears, read: Human Factor D, Table 3, read-out: IC50.
[4] abbreviates: Human Factor D 80 nM, substrate Z-L-Lys-SBzl, read-out: IC50.

Like-named read-outs stand apart in the source and are kept apart here. Some results are limits rather than exact numbers.

Chain of Human Factor D (P00746 26-253): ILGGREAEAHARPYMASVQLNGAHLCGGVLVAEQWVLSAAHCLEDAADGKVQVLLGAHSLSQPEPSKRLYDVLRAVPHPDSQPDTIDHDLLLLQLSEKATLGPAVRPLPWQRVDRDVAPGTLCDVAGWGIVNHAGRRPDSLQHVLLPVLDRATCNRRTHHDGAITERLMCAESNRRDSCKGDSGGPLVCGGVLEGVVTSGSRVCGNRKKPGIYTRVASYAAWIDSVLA

Usually IC50 stands for the midpoint of a concentration-inhibition curve. Regarding `Cc1ncc(-c2ccc3c(c2)c(C(=O)CO)nn3CC(=O)N2C[C@H](F)C[C@H]2C(=O)Nc2cccc(Br)n2)cn1` [Compound 440, (2S,4R)—N-(6-bromopyridin-2-yl)-4-fluoro-1-(2-(3-(2-hydroxyacetyl)-5-(2-methylpyrimidin-5-yl)-1H-indazol-1-yl)acetyl)pyrrolidine-2-carboxamide], the IC50 under setting [1] was less than 1000 nM.

For `Cc1cc2ncc(-c3ccc4c(c3)c(C(N)=O)nn4CC(=O)N3C[C@H](F)C[C@H]3C(=O)Nc3cccc(Br)n3)cn2n1` [Compound 284, 1-(2-((2S,4R)-2-(6-bromopyridin-2-ylcarbamoyl)-4-fluoropyrrolidin-1-yl)-2-oxoethyl)-5-(2-methylpyrazolo[1,5-a]pyrimidin-6-yl)-1H-indazole-3-carboxamide], the IC50 under setting [2] is less than 1000 nM. Consider `CC(=O)c1nn(CC(=O)N2CC[C@H]2C(=O)Nc2cccc(C)n2)c2ccc(-c3ccc(C)nc3)cc12` [Compound 588, (S)-1-(2-(3-Acetyl-5-(6-methylpyridin-3-yl)-1H-indazol-1-yl)acetyl)-N-(6-methylpyridin-2-yl)azetidine-2-carboxamide], for which the IC50 under setting [3] is more than 10000 nM.

Consider `NC(=O)c1nn(CC(=O)N2C[C@H](F)C[C@H]2C(=O)NCc2cccc(Cl)c2F)c2cnc(-c3cncnc3)cc12` [Compound 18, 1-(2-((2S,4R)-2-(3-chloro-2-fluorobenzyl-carbamoyl)-4-fluoropyrrolidin-1-yl)-2-oxoethyl)-5-(pyrimidin-5-yl)-1H-pyrazolo[3,4-c]pyridine-3-carboxamide], for which the IC50 under setting [4] is less than 1000 nM. Turning to `CC(=O)c1cn(CC(=O)N2C[C@H](F)C[C@H]2C(=O)NCc2cccc(Cl)c2F)c2ccc(-c3cnc(C)nc3)cc12` [Compound 135, (2S,4R)-1-(2-(3-acetyl-5-(2-methylpyrimidin-5-yl)-1H-indol-1-yl)acetyl)-N-(3-chloro-2-fluorobenzyl)-4-fluoropyrrolidine-2-carboxamide], the IC50 under setting [4] is less than 1000 nM. Consider `CC(=O)c1nn(CC(=O)N2[C@@H]3C[C@@H]3C[C@H]2C(=O)Nc2nc(Br)ccc2C2CC2)c2ccc(-c3cnc(C)nc3)cc12` [Compound 603, (1R,3S,5R)-2-(2-(3-Acetyl-5-(2-methylpyrimidin-5-yl)-1H-indazol-1-yl)acetyl)-N-(6-bromo-3-cyclopropyl-pyridin-2-yl)-2-azabicyclo[3.1.0]hexane-3-carboxamide], for which the IC50 under setting [3] was less than 1000 nM. As to `CC(=O)c1cn(CC(=O)N2C[C@H](F)C[C@H]2C(=O)Nc2cccc(Br)n2)c2ccc(-c3cnc(C)nc3)cc12` [Compound 84, (2S,4R)-1-(2-(3-acetyl-5-(2-methylpyrimidin-5-yl)-1H-indol-1-yl)acetyl)-N-(6-bromopyridin-2-yl)-4-fluoropyrrolidine-2-carboxamide], the IC50 under setting [4] was less than 1000 nM.

In the case of `CC(=O)c1nn(CC(=O)N2C[C@H](F)C[C@H]2C(=O)Nc2cccc(Br)n2)c2ccc(-c3cnc(C4CC4)nc3)cc12` [Compound 259], under setting [2], the IC50 was less than 1000 nM.

With `CC(=O)c1cn(CC(=O)N2C[C@H](F)C[C@H]2C(=O)Nc2cccc(-c3ccccc3Cl)c2F)c2ccc(N3CCN(C(C)=O)CC3)cc12` [Compound 16, (2S,4R)-1-(2-(3-acetyl-5-(4-acetylpiperazin-1-yl)-1H-indol-1-yl)acetyl)-N-(2′-chloro-2-fluorobiphenyl-3-yl)-4-fluoropyrrolidine-2-carboxamide], the IC50 under setting [4] is less than 1000 nM.

Consider `CC(=O)N[C@H]1[C@@H](C(=O)Nc2cccc(Br)n2)N(C(=O)Cn2nc(C(C)=O)c3cc(-c4cnc(C)nc4)ccc32)C[C@@H]1F` [Compound 512, (2S,3S,4S)-3-Acetamido-1-(2-(3-acetyl-5-(2-methylpyrimidin-5-yl)-1H-indazol-1-yl)acetyl)-N-(6-bromopyridin-2-yl)-4-fluoropyrrolidine-2-carboxamide], for which, under setting [1], the IC50 was less than 1000 nM. For the compound `NC(=O)c1nn(CC(=O)N2C[C@H](F)C[C@H]2C(=O)Nc2cccc(OCc3ccccc3)n2)c2ccc(-c3ccnnc3)cc12` [Compound 73, 1-(2-((2S,4R)-2-(6-(benzyloxy)pyridin-2-ylcarbamoyl)-4-fluoropyrrolidin-1-yl)-2-oxoethyl)-5-(pyridazin-4-yl)-1H-indazole-3-carboxamide], under setting [4], the IC50 was more than 10000 nM. Turning to `CC(=O)c1nn(CC(=O)N2C(=O)CC[C@H]2C(=O)Nc2cccc(Br)n2)c2ccc(-c3cnc(C)nc3)cc12` [Compound 271, (S)-1-(2-(3-Acetyl-5-(2-methylpyrimidin-5-yl)-1H-indazol-1-yl)acetyl)-N-(6-bromopyridin-2-yl)-5-oxopyrrolidine-2-carboxamide], the IC50 under setting [2] was less than 1000 nM. Regarding `CC(=O)c1nn(CC(=O)N2[C@@H]3C[C@@H]3C[C@H]2C(=O)Nc2cccc(-c3ccccc3Cl)c2F)c2ccc(-c3cnc(C)nc3)cc12` [Compound 189, (1R,3S,5R)-2-(2-(3-acetyl-5-(2-methylpyrimidin-5-yl)-1H-indazol-1-yl)acetyl)-N-(2′-chloro-2-fluorobiphenyl-3-yl)-2-azabicyclo[3.1.0] hexane-3-carboxamide], under setting [4], the IC50 was less than 1000 nM. Still for that read-out and setting: next, `CC(=O)Nc1ncc(-c2ccc3c(c2)c(C(C)=O)cn3CC(=O)N2C[C@H](F)C[C@H]2C(=O)Nc2cccc(Br)n2)cn1` [Compound 118, (2S,4R)-1-(2-(5-(2-acetamidopyrimidin-5-yl)-3-acetyl-1H-indol-1-yl)acetyl)-N-(6-bromopyridin-2-yl)-4-fluoropyrrolidine-2-carboxamide]: less than 1000 nM.

On to `CC(=O)c1nn(CC(=O)N2[C@@H]3C[C@@H]3C[C@H]2C(=O)NC/C(F)=C\c2ccccc2)c2ccc(-c3cnc(C)nc3)cc12` [Compound 575, (1R,3S,5R)-2-(2-(3-Acetyl-5-(2-methylpyrimidin-5-yl)-1H-indazol-1-yl)acetyl)-N-((E)-2-fluoro-3-phenylallyl)-2-azabicyclo[3.1.0]hexane-3-carboxamide], for which the IC50 under setting [3] was less than 1000 nM. `CC(=O)c1nn(CC(=O)N2C[C@H](F)C[C@H]2C(=O)Nc2cccc(Br)n2)c2ccc(-c3cnc(C)nc3C)cc12` [Compound 266, (2S,4R)-1-(2-(3-acetyl-5-(2,4-dimethylpyrimidin-5-yl)-1H-indazol-1-yl)acetyl)-N-(6-bromopyridin-2-yl)-4-fluoropyrrolidine-2-carboxamide]: the IC50 under setting [2] is less than 1000 nM. For the compound `CCc1ncc(-c2ccc3c(c2)c(C(C)=O)nn3CC(=O)N2C[C@H](F)C[C@H]2C(=O)Nc2cncc(Br)n2)cn1` [Compound 388, (2S,4R)-1-(2-(3-Acetyl-5-(2-ethylpyrimidin-5-yl)-1H-indazol-1-yl)acetyl)-N-(6-bromopyrazin-2-yl)-4-fluoropyrrolidine-2-carboxamide], the IC50 under setting [1] is less than 1000 nM.

Regarding `CC(=O)Nc1ncc(-c2ccc3c(c2)c(C(C)=O)nn3CC(=O)N2C[C@H](F)C[C@H]2C(=O)Nc2cccc(Br)n2)cn1` [Compound 597, (2S,4R)-1-(2-(5-(2-Acetamidopyrimidin-5-yl)-3-acetyl-1H-indazol-1-yl)acetyl)-N-(6-bromopyridin-2-yl)-4-fluoropyrrolidine-2-carboxamide], the IC50 under setting [3] was less than 1000 nM. For the compound `CC(=O)c1nn(CC(=O)N2[C@H]3C[C@@]3(CO)C[C@H]2C(=O)Nc2cccc(Br)n2)c2ccc(-c3cnc(C)nc3)cc12` [Compound 383, (1S,3S,5R)-2-(2-(3-Acetyl-5-(2-methylpyrimidin-5-yl)-1H-indazol-1-yl)acetyl)-N-(6-bromopyridin-2-yl)-5-(hydroxymethyl)-2-azabicyclo[3.1.0]hexane-3-carboxamide], the IC50 under setting [1] is less than 1000 nM. On to `CC(=O)c1nn(CC(=O)N2C[C@H](F)C[C@H]2C(=O)Nc2cccc(Cl)n2)c2ccc(-c3cnc(C)nc3)cc12` [Compound 225, (2S,4R)-1-(2-(3-acetyl-5-(2-methylpyrimidin-5-yl)-1H-indazol-1-yl)acetyl)-N-(6-chloropyridin-2-yl)-4-fluoropyrrolidine-2-carboxamide], for which the IC50 under setting [2] was less than 1000 nM.

Turning to `CC(=O)c1nn(CC(=O)N2C[C@H]3C[C@H]3[C@H]2C(=O)Nc2nc(Br)ccc2C)c2ccc(-c3cnc(N)nc3)cc12` [Compound 635, (1R,2S,5S)-3-(2-(3-Acetyl-5-(2-aminopyrimidin-5-yl)-1H-indazol-1-yl)acetyl)-N-(6-bromo-3-methylpyridin-2-yl)-3-azabicyclo[3.1.0]hexane-2-carboxamide], the IC50 under setting [3] is less than 1000 nM. As for `CC(=O)c1nn(CC(=O)N2C[C@H](F)C[C@H]2C(=O)Nc2cccc(Br)n2)c2ccc(-c3n[nH]c4ccsc34)cc12` [Compound 291, (2S,4R)-1-(2-(3-Acetyl-5-(1H-thieno[3,2-c]pyrazol-3-yl)-1H-indazol-1-yl)acetyl)-N-(6-bromopyridin-2-yl)-4-fluoropyrrolidine-2-carboxamide], under setting [2], the IC50 is less than 1000 nM.

Regarding `CC(=O)c1nn(CC(=O)N2[C@@H]3C[C@@H]3C[C@H]2C(=O)Nc2cncc(Br)n2)c2ccc(-c3ccc4nc(C)nn4c3)cc12` [Compound 659, (1R,3S,5R)-2-(2-(3-Acetyl-5-(2-methyl-[1,2,4]triazolo[1,5-a]pyridin-6-yl)-1H-indazol-1-yl)acetyl)-N-(6-bromopyrazin-2-yl)-2-azabicyclo[3.1.0]hexane-3-carboxamide], the IC50 under setting [3] was less than 1000 nM. In the case of `CC(=O)c1cn(CC(=O)N2N=CCC2C(=O)Nc2cccc(-c3ccccc3Cl)c2F)c2ccc(-c3cnc(C)nc3)cc12` (stereo not shown) [Compound 221, 1-(2-(3-acetyl-5-(2-methylpyrimidin-5-yl)-1H-indol-1-yl)acetyl)-N-(2′-chloro-2-fluorobiphenyl-3-yl)-4,5-dihydro-1H-pyrazole-5-carboxamide], the IC50 under setting [2] is less than 1000 nM. Take `CC(=O)c1cn(CC(=O)N2C[C@H](F)C[C@H]2C(=O)Nc2cccc(-c3ccccc3Cl)c2F)c2ccc(-c3cnc(S(C)(=O)=O)nc3)cc12` [Compound 210, (2S,4R)-1-(2-(3-acetyl-5-(2-(methylsulfonyl)pyrimidin-5-yl)-1H-indol-1-yl)acetyl)-N-(2′-chloro-2-fluorobiphenyl-3-yl)-4-fluoropyrrolidine-2-carboxamide]: the IC50 under setting [2] is less than 1000 nM.

For the origin of these results see patent US10287301B2 (Achillion Pharmaceuticals, Inc., priority 2015, dated 2019).
